Some results are limits rather than exact numbers.

In the experiment the test system is 616215-338-R-J1-PDC spheroids with HUVEC/MSC, viability. Put plainly: Anticancer human tumor 616215-338-R-J1-PDC patient-derived colon adenocarcinoma cell line growth inhibition [PI3K]. As to conditions: for viability, T/C: stronger effect = lower value. From the text: Combinatorial screen of targeted agents with the PI3K inhibitors inavolisib, alpelisib, duvelisib, and copanlisib in multi-cell type tumor spheroids
A high-throughput screen of multi-cell type tumor spheroids was designed to identify active combinations of targeted small molecules and PI3K pathway inhibitors. Complex spheroids include a stromal component modeled by human endothelial cells (HUVEC) and fibroblasts modeled by human mesenchymal stem cells (MSCs). The concentration ranges selected for each drug and investigational agent were based upon clinically achievable concentrations if the clinical Cmax of the agent was known.
Compounds. The drugs and investigational agents: inavolisib (NSC800729), alpelisib (NSC765974), duvelisib (NSC772469), copanlisib (NSC816437), ipatasertib (NSC767898), afuresertib (NSC778305), talazoparib (NSC767125), sapanisertib (NSC764658), selumetinib (NSC741078), tovorafenib (DAY101, NSC766906), vemurafenib (NSC761431), ravoxertinib (NSC781343), sotorasib (NSC818433), MRTX1133 (NSC 836407), abemaciclib (NSC 768073), palbociclib (NSC758247), venetoclax (NSC 766270), SY5609 (NSC837396), enzalutamide (NSC755605), and darolutamide (NSC825331), were obtained from the National Cancer Institute (NCI) Developmental Therapeutics Program Chemical Repository. The FDA-approved anticancer drug set is available from the NCI Developmental Therapeutics Program. […] The stock solutions were prepared in dimethyl sulfoxide (DMSO, Sigma-Aldrich, St. Louis, MO, cat. D2650) at 800-fold the tested concentration and stored at -70 degrees C prior to their use. All drugs and investigational agents were tested over a range starting from a high concentration at or near the clinical Cmax and decreasing in half-log increments. If the clinical Cmax for an agent had not been determined, the highest concentration tested was 10 microM.
Cell Culture. All cells were maintained in an incubator at 37 degrees C and 5% CO2 with 95% humidity. The PDC lines were cultured according to standard operating procedures established by the NCI PDMR (https://pdmr.cancer.gov/sops/default.htm). All PDCs were thawed and cultured in Matrigel-coated flasks prepared with a working solution of 1X Ham's F-12 nutrient mix, without supplementation (Invitrogen, Waltham, MA, cat. 11765054), 100 U/mL penicillin-streptomycin (Invitrogen, cat. 15140122), and 2.5% Matrigel (Corning Inc., Corning, NY, cat. 354248) for the first three passages. The 354836-022-R-J1-PDC, 475296-252-R-J1-PDC, and 997726-040-R-J2-PDC lines were cultured in 6A media, which includes advanced DMEM/F-12 (Thermo Fisher Scientific, cat. 12634028), 10 mM HEPES (Thermo Fisher Scientific, cat. 15630080), 1X GlutaMAX supplement (Thermo Fisher Scientific, cat. 35050061), 0.1 mg/mL primocin (InvivoGen, San Diego, CA, cat. ant-pm-2), 10% defined fetal bovine serum, heat inactivated (HyClone Laboratories Inc., Logan, UT, cat. SH30070.03HI), 50% L-WRN conditioned media (ATCC, cat. CRL-3276), 1.25 mM N-Acetyl-L-cysteine (Sigma-Aldrich, cat. A9165), 10 mM nicotinamide (Sigma-Aldrich, cat. N0636), 1X B-27 supplement (Thermo Fisher Scientific, cat. 17504044), 1X N-2 supplement (Thermo Fisher Scientific, cat. 17502048), and 10 microM Y-27632 dihydrochloride (Tocris Bioscience, Bristol, United Kingdom, cat. 1254). The 624824-186-R-J2-PDC line was cultured in 6C/Colon 1B media, which includes all 6A media components plus 50 ng/mL human EGF recombinant protein (Thermo Fisher Scientific, cat. PHG0311). […]

Where [1] appears, read: curve of first compound, second compound 0.0316 µM.
[2] abbreviates: curve of first compound, second compound 0.1 µM.
Setting [3] is: curve of first compound, second compound 0.316 µM.
Where [4] appears, read: curve of first compound, second compound 1 µM.
[5] abbreviates: second compound 0.0316 µM, first compound 0.0316 µM.
Setting [6] is: second compound 0.0316 µM, first compound 0.1 µM.
The mark [7] stands for this setting: second compound 0.0316 µM, first compound 0.316 µM.
Setting [8] is: second compound 0.0316 µM, first compound 1 µM.
Setting [9] is: second compound 0.0316 µM, first compound 3.16 µM.
The mark [10] stands for this setting: second compound 0.0316 µM, first compound 10 µM.
Setting [11] is: second compound 0.1 µM, first compound 0.0316 µM.
[12] abbreviates: second compound 0.1 µM, first compound 0.1 µM.
Setting [13] is: second compound 0.1 µM, first compound 0.316 µM.
Where [14] appears, read: second compound 0.1 µM, first compound 1 µM.
Setting [15] is: second compound 0.1 µM, first compound 3.16 µM.
The mark [16] stands for this setting: second compound 0.1 µM, first compound 10 µM.
[17] abbreviates: second compound 0.316 µM, first compound 0.0316 µM.
Where [18] appears, read: second compound 0.316 µM, first compound 0.1 µM.
Where [19] appears, read: second compound 0.316 µM, first compound 0.316 µM.
Setting [20] is: second compound 0.316 µM, first compound 1 µM.
Where [21] appears, read: second compound 0.316 µM, first compound 3.16 µM.
Setting [22] is: second compound 0.316 µM, first compound 10 µM.
[23] abbreviates: second compound 1 µM, first compound 0.0316 µM.
[24] abbreviates: second compound 1 µM, first compound 0.1 µM.
Setting [25] is: second compound 1 µM, first compound 0.316 µM.
[26] abbreviates: second compound 1 µM, first compound 1 µM.
Setting [27] is: second compound 1 µM, first compound 3.16 µM.
The mark [28] stands for this setting: second compound 1 µM, first compound 10 µM.
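Further: spheroids exposed to agents for seven days before the viability read.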

In the case of `CC(Cn1ccc(-c2ccc(C#N)c(Cl)c2)n1)NC(=O)c1cc(C(C)O)[nH]n1` (centres undefined) + CC(Nc1ncnc2nc[nH]c12)c1cc2cccc(Cl)c2c(=O)n1-c1ccccc1, the IC50 was over 10 µM under setting [1]; over 10 µM under setting [2]; over 10 µM under setting [3]; over 10 µM under setting [4]; over 10 µM (curve of first compound, second compound 3.16 µM); over 10 µM (curve of first compound, second compound 10 µM). Further, the viability, T/C reads like this: under setting [5], 92%; under setting [6], 99.5%; under setting [7], 103%; under setting [8], 96.1%; under setting [9], 116%; under setting [10], 99.5%. The viability, T/C reads like this: under setting [11], 93.7%; under setting [12], 94.6%; under setting [13], 102%; under setting [14], 92.9%; under setting [15], 95.5%; under setting [16], 104%. The viability, T/C was 93.1% under setting [17]; 102% under setting [18]; 89.1% under setting [19]; 101% under setting [20]; 102% under setting [21]; 93.4% under setting [22]. The viability, T/C runs as follows: under setting [23], 96%; under setting [24], 88.3%; under setting [25], 110%; under setting [26], 93.7%; under setting [27], 110%; under setting [28], 95.9%. The viability, T/C was 109% (second compound 3.16 µM, first compound 0.0316 µM); 97.1% (second compound 3.16 µM, first compound 0.1 µM); 107% (second compound 3.16 µM, first compound 0.316 µM); 104% (second compound 3.16 µM, first compound 1 µM); 94.8% (second compound 3.16 µM, first compound 3.16 µM); 92.8% (second compound 3.16 µM, first compound 10 µM). Also, the viability, T/C (second compound 10 µM, first compound 0.0316 µM) was 99.4%; the viability, T/C (second compound 10 µM, first compound 0.1 µM) was 106%; the viability, T/C (second compound 10 µM, first compound 0.316 µM) was 101%; the viability, T/C (second compound 10 µM, first compound 1 µM) was 97%; the viability, T/C (second compound 10 µM, first compound 3.16 µM) was 118%; the viability, T/C (second compound 10 µM, first compound 10 µM) is 95.5%.

In the case of `CCCS(=O)(=O)Nc1ccc(F)c(C(=O)c2c[nH]c3ncc(-c4ccc(Cl)cc4)cc23)c1F` + CC(Nc1ccc2c(c1)OCCn1cc(N3C(=O)OCC3C(F)F)nc1-2)C(N)=O, the IC50 (curve of first compound, second compound 0.00316 µM) came out at 4.92 µM; the IC50 (curve of first compound, second compound 0.01 µM) worked out at 4.9 µM; the IC50 under setting [1] was 4.61 µM; the concentration for half-maximal inhibition (IC50) under setting [2] was 4.47 µM; the IC50 under setting [3] came to 4.68 µM; the IC50 under setting [4] is 3.81 µM. Further, the viability, T/C is 91.3% (second compound 0.00316 µM, first compound 0.0316 µM); 92.7% (second compound 0.00316 µM, first compound 0.1 µM); 90.8% (second compound 0.00316 µM, first compound 0.316 µM); 88.8% (second compound 0.00316 µM, first compound 1 µM); 79.9% (second compound 0.00316 µM, first compound 3.16 µM); 2.03% (second compound 0.00316 µM, first compound 10 µM). In addition, the viability, T/C was 97.9% (second compound 0.01 µM, first compound 0.0316 µM); 93.1% (second compound 0.01 µM, first compound 0.1 µM); 92.2% (second compound 0.01 µM, first compound 0.316 µM); 92.9% (second compound 0.01 µM, first compound 1 µM); 79% (second compound 0.01 µM, first compound 3.16 µM); 2.65% (second compound 0.01 µM, first compound 10 µM). Moreover, the viability, T/C under setting [5] is 94.6%; the viability, T/C under setting [6] is 103%; the viability, T/C under setting [7] is 91.3%; the viability, T/C under setting [8] was 95.4%; the viability, T/C under setting [9] is 72.9%; the viability, T/C under setting [10] is 3.28%. Moreover, the viability, T/C was 107% under setting [11]; 98% under setting [12]; 92.7% under setting [13]; 103% under setting [14]; 69.9% under setting [15]; 3.51% under setting [16]. In addition, the viability, T/C was 103% under setting [17]; 103% under setting [18]; 109% under setting [19]; 102% under setting [20]; 73.3% under setting [21]; 4.84% under setting [22]. For the same compound, the viability, T/C was 108% under setting [23]; 98.1% under setting [24]; 106% under setting [25]; 102% under setting [26]; 58.8% under setting [27]; 4.52% under setting [28].

For `CC(C)NCC(C(=O)N1CCN(c2ncnc3c2C(C)CC3O)CC1)c1ccc(Cl)cc1` (centres undefined), the viability, T/C (compound 0.0316 µM) is 98.8% [middle of 4 runs]; the viability, T/C (compound 0.1 µM) is 94.3% [middle of 4 runs]; the viability, T/C (compound 0.316 µM) is 95.1% [middle of 4 runs]; the viability, T/C (compound 1 µM) was 102% [middle of 4 runs]; the viability, T/C (compound 3.16 µM) is 77.5% [middle of 4 runs]. The IC50 (curve of compound) is 6.53 µM [middle of 4 runs].

Turning to `CC1(C)CCC(Nc2ncc(C(F)(F)F)c(-c3c[nH]c4c(P(C)(C)=O)c(C#N)ccc34)n2)CN1` (centres undefined), the viability, T/C reads like this: (compound 0.1 µM) 54.8% [middle of 4 runs]; (compound 1 µM) 60.8% [middle of 4 runs]; (compound 3.16 µM) 55.7% [middle of 4 runs]; (compound 10 µM) 0.49% [middle of 4 runs].

By IC50 is commonly meant the point on the concentration scale where inhibition reaches its midpoint. As a reminder, the viability, T/C is the result in the treated group divided by that in the control group, in per cent.

(Values after PubChem BioAssay AID1963978 (Molecular Pharmacology Branch, DTP, NCI, 2024).)
